Measured values from publication PMC2859832 (Journal of medicinal chemistry, 2009).
Where two headings read alike, the source gives them in different places. Starred links: 1 amine or outer side, 2 acyl side, 3 side chain; linkers in the order of their positions; H or OH if unused. Non-standard residues stand in square brackets, D forms with d. *: point of attachment. mPro = cis-3,4-methanoproline, O=C([C@@H]1[C@@H]2C[C@@H]2CN1[*:1])[*:2]; pY = N[C@@H](Cc1ccc(OP(=O)(O)O)cc1)C(=O)O; Hydrocinnamoyl = O=C(CCc1ccccc1)*; NHBn = c1ccc(CN*)cc1

What was measured:
SH2 domain of Stat3 [1] = molecular target: T1, SH2 domain of Stat3 (Homo sapiens, UniProt P40763); test: fluorescence polarization; format: binding; settings: for fold lower affinity than the unsubstituted methyl group: relative to 4-methyl Aba peptide (17)
T1 sequence (P40763 whole entry, the tested form may be a part): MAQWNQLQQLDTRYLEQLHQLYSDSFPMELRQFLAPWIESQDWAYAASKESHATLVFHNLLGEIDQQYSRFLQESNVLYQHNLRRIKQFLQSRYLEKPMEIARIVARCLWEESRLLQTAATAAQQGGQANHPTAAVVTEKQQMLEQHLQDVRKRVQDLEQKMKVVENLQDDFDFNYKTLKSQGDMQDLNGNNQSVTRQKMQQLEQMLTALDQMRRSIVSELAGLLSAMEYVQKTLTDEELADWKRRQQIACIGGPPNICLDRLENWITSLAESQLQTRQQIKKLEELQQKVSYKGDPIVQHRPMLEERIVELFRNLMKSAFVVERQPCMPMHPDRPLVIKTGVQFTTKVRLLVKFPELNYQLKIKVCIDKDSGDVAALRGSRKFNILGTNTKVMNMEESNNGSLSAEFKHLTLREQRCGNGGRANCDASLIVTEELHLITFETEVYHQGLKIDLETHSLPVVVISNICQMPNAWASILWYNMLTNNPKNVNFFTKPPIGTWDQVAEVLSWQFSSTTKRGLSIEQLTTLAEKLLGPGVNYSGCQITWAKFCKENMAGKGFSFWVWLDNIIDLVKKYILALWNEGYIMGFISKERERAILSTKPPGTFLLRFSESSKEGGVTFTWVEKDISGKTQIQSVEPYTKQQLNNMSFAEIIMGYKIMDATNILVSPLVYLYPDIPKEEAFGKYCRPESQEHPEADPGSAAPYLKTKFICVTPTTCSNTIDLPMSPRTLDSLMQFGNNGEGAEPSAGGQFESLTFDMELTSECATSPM

SH2 domain of Stat3 [2] = molecular target: T1, SH2 domain of Stat3; settings: FP assay; ref [8]; cited from earlier work

CC(C)C[C@H](NC(=O)/C=C/c1ccc(OP(=O)(O)O)cc1)C(=O)N1CCC[C@H]1C(=O)N[C@@H](CCC(N)=O)CN(Cc1ccccc1)Cc1ccccc1 [Peptide 29]
fold lower affinity than the unsubstituted methyl group (SH2 domain of Stat3 [1]): 7 fold

CC(C)C[C@H](NC(=O)/C=C/c1ccc(OP(=O)(O)O)cc1)C(=O)N1CCC[C@H]1C(=O)N[C@H](CN)CCC(N)=O [Peptide 30]
fold lower affinity than the unsubstituted methyl group (SH2 domain of Stat3 [1]): 10 fold

CC(C)C[C@H](NC(=O)/C=C/c1ccc(OP(=O)(O)O)cc1)C(=O)N1CCC[C@H]1C(=O)N[C@@H](COC(N)=O)[C@H](C)OCc1ccccc1 [Peptide 37]
IC50 (SH2 domain of Stat3 [1]): 6.9 µM

CC(C)C[C@H](NC(=O)/C=C/c1ccc(OP(=O)(O)O)cc1)C(=O)N1CCC[C@H]1C(=O)N[C@H](C)CNC(N)=O [Peptide 39]
fold loss in activity on addition of a methyl group (SH2 domain of Stat3 [1]; relative to 2-aminoethylurea peptide 38): 10 fold

CC(C)C[C@H](NC(=O)/C=C/c1ccc(OP(=O)(O)O)cc1)C(=O)N1C[C@H]2C[C@H]2[C@H]1C(=O)N[C@@H](CCC(N)=O)C(=O)NCc1ccccc1 [Peptide 40, pCinn-Leu-cis-3,4-methanoPro-Gln-NHBn]
fold increase in affinity on incorporation of cis-3,4-methanoPro (SH2 domain of Stat3 [1]; relative to peptide 2): 2 fold

hydrocinnamoyl-pTyr-Leu-mPro-Gln-NHBn (Hydrocinnamoyl-[pY]L[mPro]Q-NHBn; SMILES CC(C)C[C@H](NC(=O)[C@H](Cc1ccc(OP(=O)(O)O)cc1)NC(=O)CCc1ccccc1)C(=O)N1C[C@H]2C[C@H]2[C@H]1C(=O)N[C@@H](CCC(N)=O)C(=O)NCc1ccccc1)
IC50 (SH2 domain of Stat3 [2]): 125 nM
